The assay deals with T1, human MCHR1 (Homo sapiens, UniProt Q99705).
T1 construct: host or cells: CHO
The experiment in a line: Cyclic AMP assay (MCHR-1 functional antagonism). The conditions noted are these: CHO cells stably expressing human MCHR1; cAMP accumulation with 25 uM forskolin and 0.2 nM MCH, 90 min; Ki from IC50 by Cheng-Prusoff; read-out: MCHR-1 functional Ki. Format: cell-based. As for the experimental part: CHO cell lines stably expressing the human MCHR1 (Euroscreen, Brussels, Belgium) were maintained in DMEM containing Glutamax (Invitrogen, Carlsbad, Calif.), 10% FBS, 400 ug/ml Geneticin.
Cyclic AMP assays. CHO cells stably expressing the human MCHR1 receptors were collected and resuspended at a density of 4.0×10^6 cells/ml in F12 (Hams) media and seeded (20,000 cells per well) into 384-well, solid white Greiner assay plates. […] Cells were incubated at 37° C./5% CO2 for 90 minutes and cAMP accumulation subsequently determined by DiscoveRx Hithunter c-AMP II Assay kit (GE Healthcare, Buckinghamshire, UK) in accordance with manufactures instructions. Luminescence was measured on a LEADseaker imaging system (GE Healthcare, Buckinghamshire, UK). IC50 values were calculated from dose-response data fit using an in-house computer graphics and statistics program.
(Changes in cAMP serve as a functional read-out for many G protein-coupled receptors.)

Where a name gives a salt, the structure may show the parent alone.

The term Ki denotes the dissociation constant of the complex between target and ligand, obtained from inhibition or displacement.

T1 sequence (Q99705 whole entry): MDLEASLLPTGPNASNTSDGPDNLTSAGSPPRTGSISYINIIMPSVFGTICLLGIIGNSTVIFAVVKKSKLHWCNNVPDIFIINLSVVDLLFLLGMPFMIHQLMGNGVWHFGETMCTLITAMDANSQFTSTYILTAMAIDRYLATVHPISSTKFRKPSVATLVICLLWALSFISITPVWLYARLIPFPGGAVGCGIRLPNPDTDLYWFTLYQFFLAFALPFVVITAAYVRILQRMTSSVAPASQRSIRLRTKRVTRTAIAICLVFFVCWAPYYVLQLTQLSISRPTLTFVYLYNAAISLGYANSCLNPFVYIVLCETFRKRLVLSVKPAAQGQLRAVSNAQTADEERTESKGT

For `CN(C)C(=O)C1CCN(c2ccc(-n3ccc(OCc4ccccc4)cc3=O)cn2)C1` (racemic) [Example 25, 1-[4-(Benzyloxy)-2-oxo-2H-1,3′-bipyridin-6′-yl]-N,N-dimethylpyrrolidine-3-carboxamide], the Ki was found to be 80.9 nM. In the case of `CC1(N)CCN(c2ccc(-n3ccc(OCc4ccccc4)cc3=O)cn2)C1` (single isomer, unassigned) [Example 17a, 6′-(3-Amino-3-methylpyrrolidin-1-yl)-4-(benzyloxy)-2H-1,3′-bipyridin-2-one] it was 15.3 nM; in that of `CC1(N)CCN(c2ccc(-n3ccc(OCc4ccccc4)cc3=O)cn2)C1` (single isomer, unassigned) [Example 17b, 6′-(3-Amino-3-methylpyrrolidin-1-yl)-4-(benzyloxy)-2H-1,3′-bipyridin-2-one], 38.1 nM. In the case of `CNC1(C)CCN(c2ccc(-n3ccc(OCc4ccccc4)cc3=O)cn2)C1` (single isomer, unassigned) [Example 18a, 4-(Benzyloxy)-6′-[3-methyl-3-(methylamino)pyrrolidin-1-yl]-2H-1,3′-bipyridin-2-one] it was 8.86 nM. In the case of `CNC1(C)CCN(c2ccc(-n3ccc(OCc4ccccc4)cc3=O)cn2)C1` (single isomer, unassigned) [Example 18b, 4-(Benzyloxy)-6′-[3-methyl-3-(methylamino)pyrrolidin-1-yl]-2H-1,3′-bipyridin-2-one] it was 18.3 nM; in that of `CN(C)C(=O)C1CCN(c2ccc(-n3ccc(OCc4ccccc4)cc3=O)cn2)C1` (single isomer, unassigned) [Example 25a, 1-[4-(Benzyloxy)-2-oxo-2H-1,3′-bipyridin-6′-yl]-N,N-dimethylpyrrolidine-3-carboxamide], 71.1 nM.

As to `CN(C)C(=O)C1CCN(c2ccc(-n3ccc(OCc4ccccc4)cc3=O)cn2)C1` (single isomer, unassigned) [Example 25b, 1-[4-(Benzyloxy)-2-oxo-2H-1,3′-bipyridin-6′-yl]-N,N-dimethylpyrrolidine-3-carboxamide], the Ki turned out to be 69.6 nM. With `CC(=O)N1CCN(c2ccc(-n3ccc(OCc4ccccc4)cc3=O)cn2)CC1` [Example 1, 6′-(4-Acetylpiperazin-1-yl)-4-(benzyloxy)-2H-1,3′-bipyridin-2-one] the figure was 47.7 nM. With `O=c1cc(OCc2ccccc2)ccn1-c1ccc(N2CCNCC2)nc1` [Example 2, 4-(Benzyloxy)-6′-piperazin-1-yl-2H-1,3′-bipyridin-2-one] the figure was 89.9 nM; with `CN1C[C@@H]2CN(c3ccc(-n4ccc(OCc5ccccc5)cc4=O)cn3)C[C@@H]2C1` [Example 3, 4-(Benzyloxy)-6′-[(3aR,6aS)-5-methylhexahydropyrrolo[3,4-c]pyrrol-2(1H)-yl]-2H-1,3′-bipyridin-2-one], 10.1 nM. In the case of `CC(C)(C)OC(=O)N1C[C@@H]2CN(c3ccc(-n4ccc(OCc5ccccc5)cc4=O)cn3)C[C@@H]2C1` [Example 4, tert-Butyl (3aR,6aS)-5-[4-(benzyloxy)-2-oxo-2H-1,3′-bipyridin-6′-yl]hexahydropyrrolo[3,4-c]pyrrole-2(1H)-carboxylate] it was 1950 nM; in that of `CN(C)C1CCN(c2ccc(-n3ccc(OCc4ccccc4)cc3=O)cn2)CC1` [Example 5, 4-(Benzyloxy)-6′-[4-(dimethylamino)piperidin-1-yl]-2H-1,3′-bipyridin-2-one], 111 nM; in that of `CN1CCN(c2ccc(-n3ccc(OCc4ccccc4)cc3=O)cn2)CC1` [Example 6, 4-(Benzyloxy)-6′-(4-methylpiperazin-1-yl)-2H-1,3′-bipyridin-2-one], 163 nM. Take `CCN1CCN(c2ccc(-n3ccc(OCc4ccccc4)cc3=O)cn2)CC1` [Example 7, 4-(Benzyloxy)-6′-(4-ethylpiperazin-1-yl)-2H-1,3′-bipyridin-2-one]: the Ki came to 87.1 nM. Regarding `O=c1cc(OCc2ccccc2)ccn1-c1ccc(N2C[C@H]3CNC[C@H]3C2)nc1` [Example 8, 4-(Benzyloxy)-6′-[(3aR,6aS)-hexahydropyrrolo[3,4-c]pyrrol-2(1H)-yl]-2H-1,3′-bipyridin-2-one dihydrochloride], the Ki amounted to 8.67 nM. With `O=c1cc(OCc2ccc(Cl)cc2)ccn1-c1ccc(N2CC[C@@H](O)C2)nc1` [Example 10, 4-[(4-Chlorobenzyl)oxy]-6′-[(3R)-3-hydroxypyrrolidin-1-yl]-2H-1,3′-bipyridin-2-one] the figure was 42.8 nM; with `O=c1cc(OCc2ccccc2)ccn1-c1ccc(N2CC[C@@H](O)C2)nc1` [Example 11, 4-(Benzyloxy)-6′-[(3R)-3hydroxypyrrolidin-1-yl]-2H-1,3′-bipyridin-2-one], 97.2 nM. With `CN(C(=O)OC(C)(C)C)[C@H]1CCN(c2ccc(-n3ccc(OCc4ccccc4)cc3=O)cn2)C1` [Example 12, tert-Butyl {(3S)-1-[4-(benzyloxy)-2-oxo-2H-1,3′-bipyridin-6′-yl]pyrrolidin-3-yl}methyl carbamate] the figure was 9.98 nM. With `CN[C@H]1CCN(c2ccc(-n3ccc(OCc4ccccc4)cc3=O)cn2)C1` [Example 13, 4-(Benzyloxy)-6′-[(3S)-3-(methylamino)pyrrolidin-1-yl]-2H-1,3′-bipyridin-2-one dihydrochloride] the figure was 4.88 nM. `CN[C@@H]1CCN(c2ccc(-n3ccc(OCc4ccccc4)cc3=O)cn2)C1` [Example 15, 4-(benzyloxy)-6′-[(3R)-3-(methylamino)pyrrolidin-1-yl]-2H-1,3′-bipyridin-2-one dihydrochloride]: the Ki was found to be 3.62 nM. With `O=c1cc(OCc2ccccc2)ccn1-c1ccc(N2CC[C@H](O)C2)nc1` [Example 16, 4-(benzyloxy)-6′-[(3S)-3-hydroxypyrrolidin-1-yl]-2H-1,3′-bipyridin-2-one] the figure was 133 nM; with `CCN[C@@H]1CCN(c2ccc(-n3ccc(OCc4ccccc4)cc3=O)cn2)C1` [Example 19, 4-(Benzyloxy)-6′-[(3R)-3-(ethylamino)pyrrolidin-1-yl]-2H-1,3′-bipyridin-2-one], 6.78 nM; with `CC(=O)N(C)[C@H]1CCN(c2ccc(-n3ccc(OCc4ccccc4)cc3=O)cn2)C1` [Example 20, N-{(3S)-1-[4-(Benzyloxy)-2-oxo-2H-1,3′-bipyridin-6′-yl]pyrrolidin-3-yl}-N-methylacetamide], 15.2 nM. With `CCN(C(=O)OC(C)(C)C)[C@@H]1CCN(c2ccc(-n3ccc(OCc4ccccc4)cc3=O)cn2)C1` [Example 23a, tert-Butyl {(3R)-1-[4-(benzyloxy)-2-oxo-2H-1,3′-bipyridin-6′-yl]pyrrolidin-3-yl}ethylcarbamate] the figure was 15.7 nM; with `CCN1C[C@@H]2CN(c3ccc(-n4ccc(OCc5ccccc5)cc4=O)cn3)C[C@@H]2C1` [Example 26, 4-(Benzyloxy)-6′-[(3aR,6aS)-5-ethylhexahydropyrrolo[3,4-c]pyrrol-2(1H)-yl]-2H-1,3′-bipyridin-2-one], 6.64 nM; with `O=C1CCCN1[C@H]1CCN(c2ccc(-n3ccc(OCc4ccccc4)cc3=O)cn2)C1` [Example 27], 71.4 nM. In the case of `O=c1cc(OCc2ccc(Cl)cc2)ccn1-c1ccc(N2CC[C@H](O)C2)nc1` [Example 29, 4-[(4-Chlorobenzyl)oxy]-6′-[(3S)-3-hydroxypyrrolidin-1-yl]-2H-1,3′-bipyridin-2-one] it was 23.7 nM. On to `O=C1CCN(c2ccc(-n3ccc(OCc4ccccc4)cc3=O)cn2)C1` [Example 30, 4-(Benzyloxy)-6′-(3-oxopyrrolidin-1-yl)-2H-1,3′-bipyridin-2-one], for which the inhibitory constant (Ki) worked out at 2470 nM.

In the case of `CN(C(=O)OC(C)(C)C)[C@H]1CCN(c2ccc(-n3ccc(CCc4ccccc4)cc3=O)cn2)C1` [Example 32, tert-Butyl methyl{(3S)-1-[2-oxo-4-(2-phenylethyl)-2H-1,3′-bipyridin-6′-yl]pyrrolidin-3-yl}-carbamate], the Ki was determined as 18.3 nM. With `CN[C@@H]1CCN(c2ccc(-n3ccc(OCc4ccccc4)cc3=O)nc2)C1` [Example 33, 4-(Benzyloxy)-5′-[(3R)-3-(methylamino)pyrrolidin-1-yl]-2H-1,2′-bipyridin-2-one] the figure was 19.4 nM; with `O=c1cc(OCc2ccccc2)ccn1-c1ccc(N2CCCC2)nc1` [Example 34, 4-(benzyloxy)-6′-pyrrolidin-1-yl-2H-1,3′-bipyridin-2-one], 54.3 nM. In the case of `NC1CN(c2ccc(-n3ccc(OCc4ccc(F)cc4)cc3=O)cn2)C1` [Example 35] it was 232 nM; in that of `CO[C@H]1CCN(c2ccc(-n3ccc(OCc4ccccc4)cc3=O)cn2)C1` [Example 36], 75.5 nM; in that of `COC1CCN(c2ccc(-n3ccc(OCc4ccccc4)cc3=O)cn2)C1` (centres unmarked) [Example 37], 42.7 nM. With `CCO[C@@H]1CCN(c2ccc(-n3ccc(OCc4ccccc4)cc3=O)cn2)C1` [Example 39] the figure was 42 nM; with `CCO[C@H]1CCN(c2ccc(-n3ccc(OCc4ccccc4)cc3=O)cn2)C1` [Example 40], 34.1 nM. Take `CCOC(=O)N[C@@H]1CCN(c2ccc(-n3ccc(OCc4ccccc4)cc3=O)cn2)C1` [Example 43]: the Ki was 364 nM.

Regarding `CC1(O)CCN(c2ccc(-n3ccc(OCc4ccccc4)cc3=O)cn2)CC1` [Example 44], the Ki stood at 113 nM. With `CC(C)C1(O)CCN(c2ccc(-n3ccc(OCc4ccccc4)cc3=O)cn2)C1` (centres unmarked) [Example 45] the figure was 270 nM; with `O=c1cc(OCc2ccccc2)ccn1-c1ccc(N2CCC(O)CC2)nc1` [Example 46], 212 nM; with `COC1CCN(c2ccc(-n3ccc(OCc4ccccc4)cc3=O)cn2)CC1` [Example 47], 57.8 nM.

The record behind these values is patent publication US20080085884A1, “Melanin Concentrating Hormone Receptor-1 Antagonist Pyridinones” (Pfizer Inc, priority 2006, published 2008).
